Experimental data as given in BigSolDB 2.1.

CCCc1ncc(C[n+]2ccccc2C)c(N)n1.Cl.[Cl-]
solubility (mole fraction)
Conditions	273.15 K	278.15 K	283.15 K	288.15 K	293.15 K	298.15 K	303.15 K	308.15 K	313.15 K
in 1,4-dioxane	–	–	–	5.76e-05	7.08e-05	8.42e-05	9.99e-05	0.000115	0.000132
in acetone	0.000227	0.000259	0.000291	0.000325	0.000359	0.000401	0.000444	0.000487	0.000533
in acetonitrile	7.2e-06	9.3e-06	1.15e-05	1.42e-05	1.68e-05	1.98e-05	2.35e-05	2.79e-05	3.27e-05
in cyclohexanone	0.000117	0.000146	0.000181	0.000217	0.000252	0.000287	0.000327	–	–
in ethanol	5.33e-05	6.8e-05	9.17e-05	0.000124	0.000159	0.000195	0.000232	0.000273	0.000319
in ethyl acetate	2.48e-05	3.34e-05	4.3e-05	5.26e-05	6.41e-05	7.65e-05	8.91e-05	0.000104	0.00012
in isobutanol	9.3e-06	1.3e-05	1.71e-05	2.18e-05	2.71e-05	3.33e-05	4.11e-05	4.98e-05	5.86e-05
in isopropanol	1.12e-05	1.63e-05	2.25e-05	2.89e-05	3.83e-05	4.87e-05	6.13e-05	7.76e-05	9.49e-05
in methanol	0.000272	0.000376	0.000476	0.00059	0.000722	0.000854	0.001	0.00115	0.0013
in n-butanol	1.79e-05	2.34e-05	3.1e-05	3.89e-05	4.88e-05	6.01e-05	7.53e-05	9.25e-05	0.000109
in n-octanol	2e-06	3.3e-06	4.9e-06	6.7e-06	9.5e-06	1.38e-05	1.86e-05	2.41e-05	3.01e-05
in n-propanol	2.98e-05	4.12e-05	5.26e-05	6.51e-05	7.7e-05	9.09e-05	0.000106	0.000124	0.000142
